# Experimental data taken from patent US20090131537A1, “Wound healing compositions” (priority 2007, published 2009).
# “Also recorded” adds a separate entry of the source. Where two headings read alike, the source gives them in different places.
# Columns and labels:
# c-neu = assay: indirect immunofluorescence c-neu staining of keratinocytes propagated with retinoic acid; assay type: cell-based, human; conditions: 5×10^−8 M all-trans retinoic acid
# Source text: In order to determine whether retinoids like retinyl acetate induced autocrine secretion of an EGF-like protein growth factor that binds to an EGF-like cell surface receptor, we designed an experiment using the erbB antibody purchased from Oncogene Sciences (Manhasset, N.Y.) and performed indirect immunofluoresnce (IIF) cytochemistry on fixed normal human neonatal foreskin keratinocytes prepared according to previous studies (Wille et al., 1984). The technique of indirect immunofluorescene was performed according to the antibody manufacturers instructions for c-neu antibody. The neu oncogene was discovered after serial transformation of cells using rat neuroblastoma DNA. The isolated oncogene hybridizes with v-erbB and has 50% homology to the normal EGF receptor, a tyrosine kinase type enzyme protein. The proto-oncogene for neu is designated c-erb-2.
# Normal human keratinocytes were propagated in a serum free medium composition containing 5×10.up.−8M all-trans retinoic acid, fixed and prepared for c-neu staining and detection by IIF as described in Experiment 1. […] We interpret this to mean that retinoid stimulation of autocrine growth proceeds through phosphorylation of an EGF-like receptor at points of cell-to-cell contact, which usually is only seen is post-mitotic suprabasal cells.
# [1] = test system: adult human keratinocytes; conditions: cited from earlier work
# [2] = test system: normal human keratinocytes; conditions: added to serum free growth factor supplemented medium; cited from earlier work
# HaCat keratinocytes [3] = assay: clonal growth assay of HaCat keratinocytes with growth factor/retinoid supplements; assay type: cell-based, human; conditions: for keratinocyte clonal growth: FIG. 1
# Protocol: In the following experiment, the effect of on keratinocyte growth of adding single or multiple additives to standard medium (Std) was examined in a clonal growth assay performed according to the methods described previously (Wille et al., 1984). Briefly, a sterile […] plastic disposable Petri dish is seed with 5,000 high cloning HaCat cells, and refed complete (E^+I^+) serum free HECK 109 medium at incubated at 37° C. for 24 to 48 hours. The cells are washed with ice-cold Standard HECK 109 medium and refed various combinations of growth factors and retinyl acetate (RetAC).
# FIG. 1 presents a photograph showing the results of incubating the HaCat seeded clonal assay dishes various supplements. The cells were fixed with 50% ethanol and stained with 0.2% crystal violet stain. This imparts a blue color to the cells. The stained dishes were then photographed.
# In a second series of experiments the HaCat keratinocyte clonal growth after one day (D1) was compared for the combination: insulin plus retinyl acetate (Ins+Rac, D1) and the combination: EGF plus insulin (EI, D1). […] In these studies, insulin was also a necessary growth factor when used in combination with retinyl acetate. This may reflect the often-observed phenomenon of “carry-over” of bound EGF on cell surface growth factor receptor.
# HaCat keratinocytes [4] = assay: wound healing zone (WHZ) wound gap closure in confluent HaCat keratinocyte sheets; assay type: cell-based, human; conditions: for healing of WHZ: 24 hours, with insulin
# Protocol: Keratinocytes were grown in a serum free medium supplemented with 5 ng/ml EGF and 5 ug/ml insulin and 0.2% fetal bovine serum and reseeded at 1×10^5 cells per cm^2 in to 35 mm 2 circular disposable Petri dishes and incubated at 37° C. until the cells completely filled the dish. These confluent cultures were then washed with ice-cold basal MCDB serum free medium and refed a serum free medium of the present invention whose composition is as shown in Table 1. A 2.5 mm linear wound was made across the midline of the diameter of the confluent culture with a 2.5 mm diameter heat-sealed tip of a 9 inch sterile Pasteur pipette. […] Wound of this diameter were routinely and reproducibly made by this technique and allow study of the effect of any agent that might have an effect on wound healing by measuring the delay in time it takes to fill in the wound gap of the WHZ.
# FIG. 6 is a photograph of 9 culture dishes fixed with 50% ethanol and stained with 0.2% crystal violet 24 hours after forming the WHZ and incubated in the serum free medium of this invention containing varying doses of retinyl acetate. The experiment was performed in duplicate dishes. There is only one dish labeled 3E-5 as its duplicate was contaminated with mold and was eliminated. Control dishes were refed serum free medium supplemented with insulin but no retinyl acetate. All of the other dishes were r3efed serum free medium with insulin and increasing amount of retinyl acetate. The mi9d line WHZ was filled by epidermal keratinocyte migration and cell growth in all of the dishes except for cultures that had retinyl acetate at concentrations greater than 3×10^−6 M.
# FIG. 7 show photomicrographs comparing wound closure in the WHZ for cultures of HaCat keratinocytes fixed and stained with crystal violet stain and photographed with bright field illumination.
# HaCat keratinocytes [5] = assay: inhibition of retinoid-induced autocrine growth of HaCat keratinocytes by receptor tyrosine kinase inhibitor; assay type: cell-based, human; conditions: standard medium + 5 ug/ml insulin + 3×10^−8 M retinyl acetate, d1, FIG. 5
# Protocol: In this experiment a selective inhibitor of receptor tyrosine protein phosphokinase was added to a culture of HaCat keratinocytes immediately prior to replacing the growth factor replete medium with HECK 110 serum free medium containing the combination insulin and retinyl acetate to induce autocrine growth. FIG. 5 presents a photograph showing three culture dishes with the following growth conditions: A. Standard growth medium (Std, d1); B. Standard growth medium containing the combination: 5 ug/ml insulin plus 3×10^−8M retinyl acetate (Ins+RAc, d1) and C. standard medium containing the combination: 5 ug/ml insulin, 3×10^−8M retinyl acetate and 2 uM of receptor tyrosine protein kinase inhibitor (Ins+Rac+RTKI, d1).
compound,measurement,setting,value
CC1=C(/C=C/C(C)=C/C=C/C(C)=C/C(=O)O)C(C)(C)CCC1 [all-trans retinoic acid],c-neu staining pattern,"c-neu; no alkaline phosphatase pre-treatment, FIG. 4A",virtually all of the positive staining was strictly localized to focal adherence areas
same,c-neu phosphorylation,"c-neu; with alkaline phosphatase pretreatment, FIG. 4B",induced a labile phosphorylation of c-neu only at the focal adherence sites
same,effect on keratinocyte growth,[1]; concentrations lower than the optimal 0.5 ng/ml,ineffective
same,effect on keratinocyte growth,"[1]; growth factor deficient medium, growth arrested cells, 0.1-2.5 ng/ml",stimulated growth
same,optimal concentration required to produce the growth stimulation,[1]; growth factor deficient medium,0.5 ng/mL
same,effect on keratinocyte proliferation,"[1]; growth factor-supplemented medium, 0.1-2.5 ng/ml",inhibited proliferation
same,rate of keratinocyte proliferation relative to maximal rate in growth factor supplemented medium,"[1]; retinoid-stimulated cultures, growth factor deficient medium",approximately 35%
same,effect on clonal growth,[2],inhibits the clonal growth
"insulin: protein growth factor insulin, supplement of serum free medium",keratinocyte clonal growth,HaCat keratinocytes [3]; standard medium + insulin 5 ug/ml only (Std+Ins),less effective; also recorded: stimulated to grow
CC(=O)OC/C=C(C)/C=C/C=C(C)/C=C/C1=C(C)CCCC1(C)C (racemic) [retinyl acetate],keratinocyte clonal growth after one day (D1) compared with EGF plus insulin,"HaCat keratinocytes [3]; 5 ug/ml insulin + 3×10^−8 M retinyl acetate, D1, FIG. 2",stimulated keratinocyte growth as well as the combination (EI)
same,keratinocyte clonal growth,HaCat keratinocytes [3]; standard medium (Std) + 3×10^−8 M retinyl acetate alone,little if any keratinocyte growth
same,keratinocyte clonal growth,HaCat keratinocytes [3]; standard medium + 5 ug/ml insulin and 3×10^−8 M retinyl acetate,sufficient to support the growth; also recorded: the best result was stimulation of keratinocyte growth
same,healing of WHZ,HaCat keratinocytes [4]; 3×10^−5 M retinyl acetate,incomplete healing; also recorded: no healing; also recorded: complete failure to fill in the WHZ gap
same,healing of WHZ,HaCat keratinocytes [4]; 3×10^−6 M retinyl acetate,incomplete healing
same,healing in the WHZ,HaCat keratinocytes [4]; 3×10^−7 M retinyl acetate,~100%
same,healing of WHZ,HaCat keratinocytes [4]; 3×10^−7 M retinyl acetate,complete wound healing
same,healing of WHZ,HaCat keratinocytes [4]; 3×10^−8 M retinyl acetate,complete healing
same,"HaCat growth, dish B versus dishes A and C",HaCat keratinocytes [5],significant growth
